Experiments:
[1] = tested on: Naïve CD4+ T human cells; test: Cellular assay for FoxP3 induction activity (qPCR of FoxP3 mRNA); type: cell-based; details: CD4+ T cells activated with anti-CD3, IL-2 and TGF-β for 5 days; FoxP3 mRNA by qPCR on day 5; FIG. 3
Description: CD4+CD25+FOXP3+ regulatory T cells (Tregs) suppress pro-inflammatory cells and signals and are critical mediators of tolerance, inhibiting excessive inflammation and autoimmunity. Also, treatment of CD4+ T cells with interleukin 2 (IL-2) and transforming growth factor beta (TGF-β) signaling are important for FOXP3 induction and Treg formation.
Naïve CD4+ T human cells (cat. no 2W-200, Lonza) were cultured and activated with artificial antigen-presenting cells and soluble anti-CD3 (100 ng/ml) in the presence of IL-2 (300 U/ml) and TGF-β (10 ng/ml) for 5 days. On day 3, cells were transfected with an anti-sense RNA against JMJD3 (cat. No 1299001, Thermo) using Lipofectamine 2000 (cat. No 11668027, Thermo). On day 5, RNA was extracted and qPCR analysis was performed to evaluate FoxP3 mRNA levels by using the following primers: F: 5′-TCCACAACATGCGACCCCCTTTCA-3′ and R: 5′-ACAGCCCCCTTCTCGCTCTCCA-3′ having a 217 bp product. All JMJD3 inhibitors (99, 92, 93, 98, and 95) in CD4+ T cells induced 7-fold FoxP3 expression levels, thus moving towards differentiation and formation of Tregs. […] Thus, genetic or pharmacological inhibition of […] will result into FoxP3 activation and induction of Treg formation. Based on this evidence, JMJD3 inhibitors (99, 92, 93, 98, and 95)) could be used in autoimmune diseases where T-regulatory cells have therapeutic potential. There is increasing evidence and literature derived from human clinical studies (Arellano B et al., Regulatory T Cell-based Therapies for Autoimmunity, Discov Med, 22:73-80, 2016).

[2] = Stability under acidic LCMS condition; type: physicochemical; details: 0.1% formic acid mobile phase; hydrolyzed —OH product found
Description: All reactions were carried out under an atmosphere of argon. Reagents and solvents were used from commercial sources without additional purification. Hydrogenation reactions were run under a balloon. Microwave reactions were performed using a CEM Discover SP microwave synthesizer. Sample purification was conducted on a Buchi Pureflash with ELSD purification system using pre-packed commercially available silica gel columns. Thin layer chromatography (TLC) was performed on aluminium plates using Merck Kiesegel 60 F254 (230-400 mesh) fluorescent treated silica which were visualized under ultraviolet light (254 nm), or by staining with potassium permanganate or ninhydrin solution as appropriate. All Nuclear Magnetic Resonance (NMR) spectra were acquired on a Bruker Avance III HD 400 MHz NMR spectrometer; chemical shifts are reported in ppm (δ). […] All compounds purity was analyzed on Agilent 1260 Infinity II Lab LC Series HPLC (1260 Quatpum, 1260 vial autosampler, ICC column oven, 1260 DAD WR detector). […] All compounds that were evaluated in biological assay had >90% and animal study had >95% purity. […]

[3] = target: JMJD3 (Homo sapiens, UniProt O15054); test: JMJD3 binding assay (Kd, affinity beads, qPCR readout); details: 11-point 3-fold dilution series, 0.9% DMSO, room temperature 1 hour; read-out: JMJD3 Affinity (binding constant, Kd)
Sequence of JMJD3 (O15054 whole entry, species assumed): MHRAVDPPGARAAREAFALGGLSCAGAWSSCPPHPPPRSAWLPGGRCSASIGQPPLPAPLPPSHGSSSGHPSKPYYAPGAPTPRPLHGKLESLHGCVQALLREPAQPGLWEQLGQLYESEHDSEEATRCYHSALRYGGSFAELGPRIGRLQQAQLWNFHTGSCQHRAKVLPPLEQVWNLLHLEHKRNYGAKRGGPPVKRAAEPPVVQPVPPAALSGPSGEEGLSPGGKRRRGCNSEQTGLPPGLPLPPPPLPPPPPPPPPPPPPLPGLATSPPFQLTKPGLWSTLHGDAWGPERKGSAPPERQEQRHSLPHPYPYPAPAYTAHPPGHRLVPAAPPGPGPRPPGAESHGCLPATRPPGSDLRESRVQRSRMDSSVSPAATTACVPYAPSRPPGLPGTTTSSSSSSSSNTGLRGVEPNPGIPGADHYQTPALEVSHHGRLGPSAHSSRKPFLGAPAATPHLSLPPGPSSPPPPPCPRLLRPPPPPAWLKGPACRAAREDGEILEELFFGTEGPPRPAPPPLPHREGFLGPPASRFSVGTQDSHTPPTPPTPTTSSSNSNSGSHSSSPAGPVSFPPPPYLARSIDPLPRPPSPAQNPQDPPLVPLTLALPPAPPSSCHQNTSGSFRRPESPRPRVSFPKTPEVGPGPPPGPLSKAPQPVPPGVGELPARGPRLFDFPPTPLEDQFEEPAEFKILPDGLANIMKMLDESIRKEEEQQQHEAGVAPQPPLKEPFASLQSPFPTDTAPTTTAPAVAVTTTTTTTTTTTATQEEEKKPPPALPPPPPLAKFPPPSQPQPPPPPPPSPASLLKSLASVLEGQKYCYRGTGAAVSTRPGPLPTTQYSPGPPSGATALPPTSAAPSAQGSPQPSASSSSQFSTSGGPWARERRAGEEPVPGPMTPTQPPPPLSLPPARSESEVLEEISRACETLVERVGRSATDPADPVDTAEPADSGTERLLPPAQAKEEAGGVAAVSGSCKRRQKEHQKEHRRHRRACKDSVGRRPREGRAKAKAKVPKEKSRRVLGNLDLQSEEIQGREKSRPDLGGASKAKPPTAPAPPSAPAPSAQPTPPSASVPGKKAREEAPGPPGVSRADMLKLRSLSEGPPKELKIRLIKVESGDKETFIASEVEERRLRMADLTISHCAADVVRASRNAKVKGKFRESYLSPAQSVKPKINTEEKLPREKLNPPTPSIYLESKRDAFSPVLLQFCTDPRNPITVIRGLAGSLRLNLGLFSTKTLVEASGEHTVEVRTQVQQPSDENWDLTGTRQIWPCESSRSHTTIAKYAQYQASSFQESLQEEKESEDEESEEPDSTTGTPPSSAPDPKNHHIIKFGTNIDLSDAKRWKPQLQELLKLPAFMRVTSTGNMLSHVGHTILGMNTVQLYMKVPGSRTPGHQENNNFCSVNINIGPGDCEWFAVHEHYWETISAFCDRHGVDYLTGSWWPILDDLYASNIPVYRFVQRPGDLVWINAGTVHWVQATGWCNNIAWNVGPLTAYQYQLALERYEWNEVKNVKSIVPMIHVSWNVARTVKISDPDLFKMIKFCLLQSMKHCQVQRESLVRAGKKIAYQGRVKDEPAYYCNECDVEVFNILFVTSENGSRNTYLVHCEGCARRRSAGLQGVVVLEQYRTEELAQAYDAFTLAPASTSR
Description: Test compounds were prepared as 111X stocks in 100% DMSO. Kd values are determined using an 11-point 3-fold compound dilution series with three DMSO control points. All compounds for Kd measurements were distributed by acoustic transfer (non-contact dispensing) in 100% DMSO. The compounds were then diluted directly into the assays such that the final concentration of DMSO was 0.9%. All reactions were performed in polypropylene 384-well plate. Each was a final volume of 0.02 ml. The assay plates were incubated at room temperature with shaking for 1 hour and the affinity beads were washed with wash buffer (lx PBS, 0.05% Tween 20). The beads were then re-suspended in elution buffer (lx PBS, 0.05% Tween 20, 0.5 μM non-biotinylated affinity ligand) and incubated at room temperature with shaking for 30 minutes. The kinase concentration in the eluates was measured by qPCR. Binding constants are calculated with a standard dose-response curve using the Hill equation:
The Hill Slope was set to −1. Curves were fitted using a non-linear least square fit with the Levenberg-Marquardt algorithm. The binding data is summarized in Table 2 where A is less than 100 nM, B is 100 to 500 nM, and C is greater than 500 nM.

[4] = tested on: THP-1 human monocytes; test: Cellular assay for anti-inflammatory properties: cytokine ELISA multiplex in LPS-stimulated PMA-differentiated THP-1 macrophages; type: cell-based; details: 1 μM, 4 hours before 100 ng/mL LPS for 4 or 24 hours; cytokine protein in media vs LPS+PMA only
Description: The anti-inflammatory properties of five JMJD3 inhibitors (99, 92, 93, 98, and 95, in no particularly order) were evaluated in an immune cellular assay targeting key pro-inflammatory cytokines involved in the pathogenesis of multiple autoimmune disease.
Specifically, THP-1 human monocytes were grown in 6-well plates (RPMI 1640+10% FBS+1% P/S). After washing with PBS the THP-1 cells were differentiated into macrophages using 20 nM of phorbol 12-myristate 13-acetate (PMA) for 24 hrs. 99, 92, 93, 98, and 95) (1 μM) were added into the macrophages, which are incubated for 4 hours before the addition of 100 ng/mL lipopolysaccharide (LPS) for either 4 or 24 hours. Next, the macrophages are collected via centrifugation at 1.2K rpm for 5 min and use their media to evaluate cytokine protein levels by using the Bio-rad Cytokine ELISA multiplex assay (cat. No M5000031YV). The supernatants from macrophages treated only with only LPS+PMA were collected and used as negative controls.

c1ccc2c(c1)ccn2-c1nc(OC2CCCC2)nc(-n2cccn2)n1 [Compound 95, 1-(4-(Cyclopentyloxy)-6-(1H-pyrazol-1-yl)-1,3,5-triazin-2-yl)-1H-indole]
FoxP3 expression levels (induction) [1]: 7 fold
stability under acidic LCMS condition [2]: unstable
Kd [3]: < 100 nM
suppression of TNF-alpha (TNFA) [4]: suppression
suppression of interleukin 1beta (IL1B) [4]: suppression
suppression of interleukin 5 (IL5) [4]: suppression
suppression of interleukin 6 (IL6) [4]: suppression
suppression of interleukin 8 (IL8) [4]: suppression
suppression of interleukin 13 (IL13) [4]: suppression

Reference: patent US20250188062A1, “TRIAZINE COMPOUNDS AND METHODS OF MAKING AND USING THE SAME” (Athos Therapeutics, Inc., priority 2021, published 2025)
